Laboratory results: article PMC10126811, “The dinitrobenzamide mustard prodrugs, PR-104A and SN27686, for use in a novel MNDEPT cancer prodrug therapy approach” (Bioscience Reports, 2023)
Like-named read-outs stand apart in the source and are kept apart here.

Key:
YfkO-cys = tested on: T1, YfkO-cys; test: prodrug consumption at […] nm, microplate, Michaelis-Menten fit; format: biochemical, Bacillus licheniformis; conditions: NADH 4 mM, 50 mM phosphate pH 7.2, 37 °C, 5% v/v DMSO, prodrug 0.1-20 mM
T1 construct: pET28a+ His-tag plus tag of 6 N-terminal cysteines, tags kept; E. coli Rosetta pLysS; FMN-loaded; approx. 30 kDa monomer on SDS-PAGE; free enzyme

NfnB-cys = biological target: T2, NfnB-cys (Escherichia coli, UniProt P38489); test: as above; format: biochemical; conditions: read-out: Km μM, NADH 4 mM, 50 mM phosphate pH 7.2, 37 °C, 5% v/v DMSO, prodrug 0.1-20 mM
T2 construct: gene nfsB; pET28a+ His-tag plus tag of 6 N-terminal cysteines, tags kept; E. coli Rosetta pLysS; FMN-loaded; approx. 28 kDa monomer on SDS-PAGE; free enzyme
T2 sequence (P38489 whole entry): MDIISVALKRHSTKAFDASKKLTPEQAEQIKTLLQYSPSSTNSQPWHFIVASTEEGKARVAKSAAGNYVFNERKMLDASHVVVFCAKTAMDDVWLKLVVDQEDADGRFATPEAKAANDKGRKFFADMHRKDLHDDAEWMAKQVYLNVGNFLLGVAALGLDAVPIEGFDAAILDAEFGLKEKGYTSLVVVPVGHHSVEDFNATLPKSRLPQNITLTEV

O=C(NCCO)c1cc([N+](=O)[O-])cc([N+](=O)[O-])c1N(CCBr)CCBr [SN27686] gave a Km (YfkO-cys) of 420 ± 120 µM and a Km (NfnB-cys; text b40 prints 257 μM) of 250 ± 80 µM.

CS(=O)(=O)OCCN(CCBr)c1c(C(=O)NCCO)cc([N+](=O)[O-])cc1[N+](=O)[O-] [PR-104A, 2-[N-(2-bromoethyl)-2-(2-hydroxyethylcarbamoyl)-4,6-dinitroanilino]ethylmethanesulfonate] showed a Km (YfkO-cys; text b40 prints 1935 μM) of 1900 ± 350 µM and a Km (NfnB-cys; text b40 prints 3172 μM) of 3100 ± 400 µM.
